Where two headings read alike, the source gives them in different places.
Tests used:
[1] = Solubility of each salt of T-3811 in distilled water; type: physicochemical; settings: for pH: pH given beside the solubility of each salt in distilled water; for solubility at 3 h: thermodynamic from solid; for solubility at a physiologically acceptable pH: compared with the other salts of T-3811, in words
Procedure: This sample solution is exposed to ultrasonic wave irradiation 5 (SOLID STATE 1,200, Cho-onpa Kogyo) in cold water for 3 hours and then filtered through a filter with a pore size of 0.45-μm (MILLEX-HV13, MILLIPORE).

[2] = Solubility of T-3811 in the vicinity of neutral; type: physicochemical; settings: in words
[3] = test system: Gram-positive and Gram-negative bacteria; settings: background statement, in words; cited from earlier work
[4] = Stability against humidity; type: physicochemical; settings: in words
[5] = about 50 mg salt in 2 ml distilled water, ultrasonic wave irradiation in cold water 3 hours, 0.45-μm filtrate, T-3811 content by liquid chromatography, read-out: Solubility

Structure (SMILES)	pH [1]	solubility at 3 h [1, 5] [µg/mL]	also measured
CC(=O)O.C[C@H]1NCc2cc(-c3ccc4c(=O)c(C(=O)O)cn(C5CC5)c4c3OC(F)F)ccc21 [Acetate, (R)-1-cyclopropyl-8-difluoromethoxy-7-(1-methyl-2,3-dihydro-1H-5-isoindolyl)-4-oxo-1,4-dihydro-3-quinolinecarboxylic acid acetate]	4.22	–	solubility at 3 h ([1]; water): 6230 µg/mL
C[C@H]1NCc2cc(-c3ccc4c(=O)c(C(=O)O)cn(C5CC5)c4c3OC(F)F)ccc21.O=C(O)CC(O)(CC(=O)O)C(=O)O [Citrate, (R)-1-cyclopropyl-8-difluoromethoxy-7-(1-methyl-2,3-dihydro-1H-5-isoindolyl)-4-oxo-1,4-dihydro-3-quinolinecarboxylic acid citrate]	3.90	420	–
C[C@H]1NCc2cc(-c3ccc4c(=O)c(C(=O)O)cn(C5CC5)c4c3OC(F)F)ccc21 [Example T-3811, (R)-1-cyclopropyl-8-difluoromethoxy-7-(1-methyl-2,3-dihydro-1H-5-isoindolyl)-4-oxo-1,4-dihydro-3-quinoline-carboxylic acid]	–	–	solubility in the vicinity of neutral [2]: low; activity against Gram-positive and Gram-negative bacteria [3]: excellent
C[C@H]1NCc2cc(-c3ccc4c(=O)c(C(=O)O)cn(C5CC5)c4c3OC(F)F)ccc21.Cl [Hydrochloride, (R)-1-cyclopropyl-8-difluoromethoxy-7-(1-methyl-2,3-dihydro-1H-5-isoindolyl)-4-oxo-1,4-dihydro-3-quinolinecarboxylic acid hydrochloride]	3.99	–	solubility at 3 h ([1]; water): 5450 µg/mL
C[C@H](O)C(=O)O.C[C@H]1NCc2cc(-c3ccc4c(=O)c(C(=O)O)cn(C5CC5)c4c3OC(F)F)ccc21 [L-lactate, (R)-1-cyclopropyl-8-difluoromethoxy-7-(1-methyl-2,3-dihydro-1H-5-isoindolyl)-4-oxo-1,4-dihydro-3-quinolinecarboxylic acid L-lactate]	4.40	1980	–
C[C@H]1NCc2cc(-c3ccc4c(=O)c(C(=O)[O-])cn(C5CC5)c4c3OC(F)F)ccc21.C[C@H]1NCc2cc(-c3ccc4c(=O)c(C(=O)[O-])cn(C5CC5)c4c3OC(F)F)ccc21.[Mg+2] [Magnesium salt, magnesium salt of (R)-1-cyclopropyl-8-difluoromethoxy-7-(1-methyl-2,3-dihydro-1H-5-isoindolyl)-4-oxo-1,4-dihydro-3-quinolinecarboxylic acid]	7.58	–	Solubility ([1]; about 50 mg salt in 2 ml distilled water, ultrasonic wave irradiation in cold water 3 hours, 0.45-μm filtrate, T-3811 content by liquid chromatography): 60 µg/mL
CS(=O)(=O)O.C[C@H]1NCc2cc(-c3ccc4c(=O)c(C(=O)O)cn(C5CC5)c4c3OC(F)F)ccc21 [Methanesulfonate, (R)-1-cyclopropyl-8-difluoromethoxy-7-(1-methyl-2,3-dihydro-1H-5-isoindolyl)-4-oxo-1,4-dihydro-3-quinolinecarboxylic acid methanesulfonate]	3.66	16500	solubility at a physiologically acceptable pH ([1]; listed as methanesulfonate of T-3811, methanesulfonate): much higher; solubility at a physiologically acceptable pH ([1]; listed as t-3811 methanesulfonate, methanesulfonate): remarkably high
C[C@H]1NCc2cc(-c3ccc4c(=O)c(C(=O)O)cn(C5CC5)c4c3OC(F)F)ccc21.O=P(O)(O)O [Phosphate, (R)-1-cyclopropyl-8-difluoromethoxy-7-(1-methyl-2,3-dihydro-1H-5-isoindolyl)-4-oxo-1,4-dihydro-3-quinoline-carboxylic acid phosphate]	3.29	8520	–
C[C@H]1NCc2cc(-c3ccc4c(=O)c(C(=O)[O-])cn(C5CC5)c4c3OC(F)F)ccc21.[Na+] [Sodium salt, sodium (R)-1-cyclopropyl-8-difluoromethoxy-7-(1-methyl-2,3-dihydro-1H-5-isoindolyl)-4-oxo-1,4-dihydro-3-quinolinecarboxylate]	10.11	2340	–
C[C@H]1NCc2cc(-c3ccc4c(=O)c(C(=O)O)cn(C5CC5)c4c3OC(F)F)ccc21.O=S(=O)(O)O [Sulfate, (R)-1-cyclopropyl-8-difluoromethoxy-7-(1-methyl-2,3-dihydro-1H-5-isoindolyl)-4-oxo-1,4-dihydro-3-quinolinecarboxylic acid sulfate]	3.46	1170	–
CS(=O)(=O)O.C[C@H]1NCc2cc(-c3ccc4c(=O)c(C(=O)O)cn(C5CC5)c4c3OC(F)F)ccc21.O [T-3811 methanesulfonate hydrate, (R)-1-cyclopropyl-8-difluoromethoxy-7-(1-methyl-2,3-dihydro-1H-5-isoindolyl)-4-oxo-1,4-dihydro-3-quinolinecarboxylic acid methanesulfonate monohydrate]	–	–	stability against humidity [4]: good

Source: patent publication US6337399B1, “Processes for producing 7-isoindolinequinolonecarboxylic derivatives and intermediates therefor, salts of 7-isoindolinequinolonecarboxylic acids, hydrates thereof, and composition containing the same as active ingredient” (priority 1997, dated 2002)
